Where two headings read alike, the source gives them in different places.
How the values were obtained:
HBV N236T = assay: HBVDR assay, strain N236T; assay type: cell-based
HBV M204V = assay: HBVDR assay, strain M204V; assay type: cell-based
HBV WT = assay: HBVDR assay, strain WT; assay type: cell-based; conditions: assay type HBVDR
HBV M204I = assay: HBVDR assay, strain M204I; assay type: cell-based
HBV LM/MV = assay: HBVDR assay, strain LM/MV; assay type: cell-based
HBV L180M = assay: HBVDR assay, strain L180M; assay type: cell-based
HBV = assay: Inhibition of HBV release from 2.2.15 cells (HBV virion DNA in culture medium, quantitative blot hybridization); assay type: cell-based; conditions: for SI: S.I. (CC50/EC90)
Protocol: (§1) The ability of sLDLR to inhibit pathogenic viruses was tested by the NIAID Antimicrobial Acquisition and Coordinating Facility (AACF). Confluent cultures of 2.2.15 cells (HBV-infected human HepG2 hepatocellular carcinoma cells (ATCC HB-8065), constitutively shedding HBV virions) were maintained on 96-well flat-bottomed tissue culture plates in RPMI1640 medium with 2% fetal bovine serum (Korba & Gerin, Antivir. Res. 19:55-70, 1992). Cultures (6 per each of 4 test concentrations on two replicate plates) were treated with 9 consecutive daily doses of sLDL compounds. Medium was changed daily with fresh test compounds. HBV virion DNA in the culture medium was assessed 24 hours after the last treatment by quantitative blot hybridization. Uptake of neutral red dye (absorbance of internalized dye at […] [A510]) wa used to determine the relative level of toxicity 24 hours following the last treatment (Korba & Gerin, Antivir. Res. 19:55-70, 1992). Values are presented as a percentage of the average A510 values for 9 separate cultures of untreated cells maintained on the same plate. Cultures for the toxicity analyses were seeded at the same time with the identical pool of stock cells used for the antiviral analyses and maintained in an identical manner. A total of 3 cultures were treated with each concentration of test compound. […] CC50, EC50, EC90, and S.I. (CC50/EC90) were calculated. Lamivudine (3TC) was used as a positive assay control.

[1] = test system: 2.2.15 cells (HBV-infected human HepG2 hepatocellular carcinoma cells); assay: Neutral red dye uptake toxicity in 2.2.15 cells; assay type: cell-based; conditions: neutral red uptake (A510) 24 hours after last of 9 daily treatments
Protocol: as §1, with “Lamivudine (3TC) was used as a positive assay control.” left out

[2] = test system: lamivudine as well as adefovir dipovoxil resistant mutants (HBV); assay: HBVDR assay, panel of resistant mutants; assay type: cell-based; conditions: all tested resistant mutants
[3] = Neutral red dye uptake toxicity in 2.2.15 cells; assay type: cell-based, human; conditions: human, neutral red uptake (A510) 24 hours after last of 9 daily treatments, positive assay control
Protocol: as §1, with “Lamivudine (3TC) was used as a positive assay control.” left out

[4] = HBV strain N236T, assay type HBVDR, read-out: EC50
[5] = HBV strain N236T, assay type HBVDR, read-out: EC90
[6] = HBV strain M204V, assay type HBVDR, read-out: EC50
[7] = HBV strain M204V, assay type HBVDR, read-out: EC90
[8] = HBV strain M204I, assay type HBVDR, read-out: EC50
[9] = HBV strain M204I, assay type HBVDR, read-out: EC90
[10] = HBV strain LM/MV, assay type HBVDR, read-out: EC50
[11] = HBV strain LM/MV, assay type HBVDR, read-out: EC90
[12] = HBV strain L180M, assay type HBVDR, read-out: EC50
[13] = HBV strain L180M, assay type HBVDR, read-out: EC90
[14] = HBV virion DNA in culture medium 24 hours after last of 9 consecutive daily doses, 2.2.15 cells

Compound | EC50 (HBV N236T; [4]) [µM] | EC90 (HBV N236T; [5]) [µM] | EC50 (HBV M204V; [6]) [µM] | EC90 (HBV M204V; [7]) [µM] | EC50 (HBV WT) [µM] | EC90 (HBV WT) [µM] | EC50 (HBV M204I; [8]) [µM] | EC90 (HBV M204I; [9]) [µM] | EC50 (HBV LM/MV; [10]) [µM] | EC90 (HBV LM/MV; [11]) [µM] | EC50 (HBV L180M; [12]) [µM] | EC90 (HBV L180M; [13]) [µM] | further results
CC(C)(C)C(=O)OCOP(=O)(COCCn1cnc2c(N)ncnc21)OCOC(=O)C(C)(C)C [ADV, Adefovir Dipovoxil] | 8.1 | 32 | 1.8 | 7 | 1.5 | 6.5 | 1.3 | 7.2 | 1.3 | 7.8 | 1.9 | 8.5 | –
sLDLR | 1 | 8.2 | 1 | 6.5 | 0.9 | 6 | 1.1 | 8 | 1.2 | 7.5 | 0.8 | 6.3 | inhibition of formation of HBV virion from virus-infected cells relative to toxicity (HBV; 2.2.15 cells): inhibited the formation of HBV virion from virus-infected cells at concentrations far below toxicity; EC50 (HBV; [14]): 0.131 µg/mL; EC90 (HBV; [14]): 0.922 µg/mL; SI (HBV; sLDLR columns): >11; CC50 [1]: >10 µg/mL; activity against lamivudine and adefovir dipovoxil resistant mutants [2]: active against all tested lamivudine as well as adefovir dipovoxil resistant mutants
Nc1ccn([C@@H]2CS[C@H](CO)O2)c(=O)n1 [Lamivudine] | – | – | – | – | – | – | – | – | – | – | – | – | EC50 (HBV N236T; Hepatitis B virus): 0.2 µM; EC90 (HBV N236T; Hepatitis B virus): 0.6 µM; EC50 (HBV M204V; Hepatitis B virus): > 100 µM; EC90 (HBV M204V; Hepatitis B virus): > 100 µM; EC50 (HBV; Hepatitis B virus, 24 h): 0.045 µM; EC90 (HBV; Hepatitis B virus, 24 h): 0.146 µM; SI (HBV; Lamivudine columns): 15178; EC50 (HBV WT; Hepatitis B virus): 0.2 µM; EC90 (HBV WT; Hepatitis B virus): 0.7 µM; EC50 (HBV M204I; Hepatitis B virus): > 100 µM; EC90 (HBV M204I; Hepatitis B virus): > 100 µM; EC50 (HBV LM/MV; Hepatitis B virus): > 100 µM; EC90 (HBV LM/MV; Hepatitis B virus): > 100 µM; EC50 (HBV L180M; Hepatitis B virus): 5.2 µM; EC90 (HBV L180M; Hepatitis B virus): 20 µM; CC50 [3]: 2310 µM

From patent US8293706B2, “Method for inhibiting release of hepatitis B virus from liver cells” (priority 2008, dated 2012)
